Results as given in patent EP0933027A1, “Methods and compositions for protecting animals and humans against attack and infestation by arthropod and helminth parasites” (American Cyanamid Company, priority 1998, dated 1999).
Where two headings read alike, the source gives them in different places.

Assays:
[1] = system: Pyrethroid-resistant horn fly (Haematobia irritans); test: Treated filter paper test against adult pyrethroid-resistant horn fly; conditions: corrected for control mortality
Experimental: Test doses are expressed as µg of test substance per cm^2 of filter paper. • 1) Prepare solutions of test compound in acetone such that 800 or 1000 µL contains the amount necessary to obtain the desired dose rate. • 2) Pipette 800 or 1000 µL of test solution onto filter paper. • 3) Filter papers are dried under a fume hood. • 4) When dry, filter papers are placed in the petri dish tops. Dishes are generally held about 24 hours before test organism is added. • 5) Two- to five-day-old horn flies (pyrethroid-susceptible or -resistant) which have had two or more blood meals are used in the assay. Flies are collected into a small vial from the holding cage. Vials are then chilled in a freezer for about 4 minutes to immobilize the flies. Immobilized flies are then distributed to petri dish bottoms, 12 to 25 flies per dish, then dishes are closed and inverted. • 6) As soon as the flies become mobile (about 5 minutes), they are examined to detect any flies that are dead or injured. This number is subtracted from total number of flies in the dish. • 7) Petri dishes are held at room temperature and examined at the desired time intervals which might be 10 minutes to 6 hours. • 8) All dead flies are recorded at each examination time. […] 10) Percent mortality at any time period is calculated using the following formula: (Number of dead flies - number dead @ 5 min)/(Total number of flies - number dead @ 5 min)x 100 [formula] Percent mortality is then corrected for control mortality using Abbot's formula.

[2] = system: Bovicola spp.; test: Coated vial test against adult biting louse; conditions: for mortality at 2 µg/cm2: dose 2.0 µg/cm^2; for mortality at 6.1 µg/cm2: dose 6.1 µg/cm^2
Experimental: This test is designed to evaluate the activity of test compounds against the biting louse. Test compounds are dissolved in 100% acetone to 300, 100 and 10 ppm. 100 µL of each of these dilutions is added to the bottom of a 20 mL glass scintillation vial with a pipettor. The vial is allowed to dry under a fume hood for 15 minutes. The bottom of the vial measures 4.909 cm^2. The amount of test compound applied by each dilution equals 6.1, 2.0 and 0.2 µg/cm^2, respectively. Included in all tests are two to three replications of untreated vials. Lice are collected from the host animal and are used within 4 hours. The lice are counted into the scintillation vials with a slightly damp paintbrush. Five adult lice are placed in each vial. These tests are done in replicates of two or three so that there are 10 to 15 lice per rate/compound. Mortality readings are taken at 2 and 4 hours after placing the lice in the vials. To read the test, the vial is placed under a magnifying glass. […] Percent mortality is then calculated for each treatment.

[3] = system: Ctenocephalides felis; test: Contact activity against adult cat flea, with and without piperonyl butoxide
Experimental: This test is designed to evaluate the contact activity of test compounds against the adult cat flea. Test compounds are dissolved in 100% acetone to 300, 100, 10 and 1 ppm. 100 µL of each of these dilutions is added to the bottom of a 20 mL glass scintillation vial with a pipettor. The vial is allowed to dry under a fume hood for 15 minutes. The bottom of the vial measures 4.909 cm^2. The amount of test compound applied by each dilution equals 6.2, 2.0, 0.2 and 0.02 µg/cm^2, respectively. Newly emerged adult cat fleas are anesthetized with CO2 to immobilize, and are counted into the scintillation vials with forceps. Five fleas are placed in each vial. These tests are done in replicates of two or three so that there are 10 to 15 fleas per rate/compound. Mortality readings are taken 4 and 24 hours after placing the fleas in the vials. […] Percent mortality is then calculated for each treatment.
This test evaluates the synergistic effect of piperonyl butoxide on the formula I compounds of this invention. Piperonyl butoxide (PBO) is added in an amount of 1.5% to a 1,000 ppm solution of a test compound in acetone. Dilutions are then made with acetone to provide solutions containing 300, 100, 10 and 1 ppm of the test compound and 0.45%, 0.15%, 0.015% and 0.0015% piperonyl butoxide, respectively. Solutions containing 1,000, 300, 100, 10 and 1 ppm of the test compound alone are used as the control. The evaluations are conducted according to the procedure described in Example 1.

[4] = system: Dermacentor variabilis; test: Contact activity against larval American dog tick (coated vial)
Experimental: This test is designed to evaluate the contact activity of test compounds against the American dog tick. Test compounds are dissolved in 100% acetone to 1000, 300, 100, 10, 1 and 0.1 ppm. 100 µL of each of these dilutions is added to the bottom of a 20 mL glass scintillation vial with a pipettor. The vial is allowed to dry under a fume hood for 15 minutes. The vial is then turned in its side, and 250 µL of each dilution is applied to the sides of the vial. The vial is placed on a rolling machine and allowed to roll under the hood, coating the sides of the vial, until the acetone completely evaporates. The bottom of the vial measures 4.909 cm^2 and the sides measure 4.5 cm high x 8.8 cm around, so that the total coated area of the scintillation vial measures 44.51 cm^2. The amount of test compound applied by each dilution equals 7.86, 2.36, 0.79, 0.079, 0.0079 and 0.00079 µg/cm^2, respectively. Unfed larval dog ticks are counted into the scintillation vials with a slightly damp paintbrush. Ten ticks are placed in each vial. These tests are done in replicates of two or three so that there are 20 to 30 ticks per rate/compound. Mortality readings are taken 4 and 24 hours after placing the ticks in the vials. To read the test, the vial is placed under a magnifying glass and tapped gently. […] Percent mortality is then calculated for each treatment.

[5] = 2 hours, read-out: 2 Hour % Mortality
[6] = 4 hours, read-out: 4 Hour % Mortality
[7] = 4 h, read-out: 4 Hour % Mortality
[8] = 24 h, read-out: 24 Hour % Mortality

Compound F/C(=C\Cc1ccc(F)c(Oc2ccccc2)c1)C(c1ccc(Cl)cc1)C1CC1 (centres unmarked) [Compound 5, 1-[1-(p-Chlorophenyl)-2-fluoro-4-(4-fluoro-3-phenoxyphenyl)-2-butenyl]cyclopropane, (Z)-] has a mortality at 1.25 µg/cm2 ([1]; dose 1.25 µg/cm^2, 6 hours) of 0%, a mortality at 2.5 µg/cm2 ([1]; dose 2.50 µg/cm^2, 6 hours) of 1% and a mortality at 5 µg/cm2 ([1]; dose 5.00 µg/cm^2, 6 hours) of 7%. The mortality at 10 µg/cm2 ([1]; dose 10.0 µg/cm^2, 6 hours) was 33%, the mortality at 20 µg/cm2 ([1]; dose 20.0 µg/cm^2, 6 hours) was 93% and the mortality at 2 µg/cm2 [2, 5] was 92%. It also gave a mortality at 2 µg/cm2 [2, 6] of 100%, a mortality at 6.1 µg/cm2 [2, 5] of 100% and a mortality at 6.1 µg/cm2 [2, 6] of 100%. It also gave a mortality at 0.02 µg/cm2 ([3]; 4 h, dose 0.02 µg/cm^2, 0.0 % PBO (test compound alone), 4 hours, read-out: 4 Hour % Mortality) of 0%, a mortality at 0.02 µg/cm2 ([3]; 4 h, dose 0.02 µg/cm^2, 0.0015 % PBO in composition, 4 hours, read-out: 4 Hour % Mortality) of 0% and a mortality at 0.2 µg/cm2 ([3]; 4 h, dose 0.2 µg/cm^2, 0.0 % PBO (test compound alone), 4 hours, read-out: 4 Hour % Mortality) of 20%. For the same compound, the mortality at 0.2 µg/cm2 ([3]; 4 h, dose 0.2 µg/cm^2, 0.015 % PBO in composition, 4 hours, read-out: 4 Hour % Mortality) was 40%, the mortality at 2 µg/cm2 ([3]; 4 h, dose 2.0 µg/cm^2, 0.0 % PBO (test compound alone), 4 hours, read-out: 4 Hour % Mortality) was 30% and the mortality at 2 µg/cm2 ([3]; 4 h, dose 2.0 µg/cm^2, 0.15 % PBO in composition, 4 hours, read-out: 4 Hour % Mortality) was 20%. For the same compound, the mortality at 6.2 µg/cm2 ([3]; 4 h, dose 6.2 µg/cm^2, 0.0 % PBO (test compound alone), 4 hours, read-out: 4 Hour % Mortality) was 30%, the mortality at 6.2 µg/cm2 ([3]; 4 h, dose 6.2 µg/cm^2, 0.45 % PBO in composition, 4 hours, read-out: 4 Hour % Mortality) was 20% and the mortality at 20 µg/cm2 ([3]; 4 h, dose 20.0 µg/cm^2, 0.0 % PBO (test compound alone), 4 hours, read-out: 4 Hour % Mortality) was 100%. For the same compound, the mortality at 20 µg/cm2 ([3]; 4 h, dose 20.0 µg/cm^2, 1.50 % PBO in composition, 4 hours, read-out: 4 Hour % Mortality) was 100%, the mortality at 0.02 µg/cm2 ([3]; 24 h, dose 0.02 µg/cm^2, 0.0 % PBO (test compound alone), 24 hours, read-out: 24 Hour % Mortality) was 10% and the mortality at 0.02 µg/cm2 ([3]; 24 h, dose 0.02 µg/cm^2, 0.0015 % PBO in composition, 24 hours, read-out: 24 Hour % Mortality) was 70%. The mortality at 0.2 µg/cm2 ([3]; 24 h, dose 0.2 µg/cm^2, 0.0 % PBO (test compound alone), 24 hours, read-out: 24 Hour % Mortality) was 20%, the mortality at 0.2 µg/cm2 ([3]; 24 h, dose 0.2 µg/cm^2, 0.015 % PBO in composition, 24 hours, read-out: 24 Hour % Mortality) was 100% and the mortality at 2 µg/cm2 ([3]; 24 h, dose 2.0 µg/cm^2, 0.0 % PBO (test compound alone), 24 hours, read-out: 24 Hour % Mortality) was 100%. The mortality at 2 µg/cm2 ([3]; 24 h, dose 2.0 µg/cm^2, 0.15 % PBO in composition, 24 hours, read-out: 24 Hour % Mortality) was 100%, the mortality at 6.2 µg/cm2 ([3]; 24 h, dose 6.2 µg/cm^2, 0.0 % PBO (test compound alone), 24 hours, read-out: 24 Hour % Mortality) was 100% and the mortality at 6.2 µg/cm2 ([3]; 24 h, dose 6.2 µg/cm^2, 0.45 % PBO in composition, 24 hours, read-out: 24 Hour % Mortality) was 100%. For the same compound, the mortality at 20 µg/cm2 ([3]; 24 h, dose 20.0 µg/cm^2, 0.0 % PBO (test compound alone), 24 hours, read-out: 24 Hour % Mortality) was 100%, the mortality at 20 µg/cm2 ([3]; 24 h, dose 20.0 µg/cm^2, 1.50 % PBO in composition, 24 hours, read-out: 24 Hour % Mortality) was 100% and the mortality at 0.00079 µg/cm2 [4, 7] was 100%. The mortality at 0.0079 µg/cm2 [4, 7] was 100%, the mortality at 0.079 µg/cm2 [4, 7] was 100% and the mortality at 0.79 µg/cm2 [4, 7] was 100%. The mortality at 2.36 µg/cm2 [4, 7] was 100%, the mortality at 7.86 µg/cm2 [4, 7] was 100% and the mortality at 0.00079 µg/cm2 [4, 8] was 100%. The mortality at 0.0079 µg/cm2 [4, 8] was 100%, the mortality at 0.079 µg/cm2 [4, 8] was 100% and the mortality at 0.79 µg/cm2 [4, 8] was 100%. For the same compound, the mortality at 2.36 µg/cm2 [4, 8] was 100% and the mortality at 7.86 µg/cm2 [4, 8] was 100%.
